Reference: US9421197B2, “Methods of generating hyper INOS expressing cells and uses thereof” (CASE WESTERN RESERVE UNIVERSITY, priority 2010, dated 2016)

How the values were obtained:
peritoneal macrophages = assay: thioglycollate-induced peritonitis, peritoneal macrophages analyzed ex vivo by RT-PCR; conditions: IL6−/− mice treated in vivo
Method: For RT-PCR analysis, RNA was isolated using Trizol (Invitrogen) following the manufacturer's instructions, and was reverse-transcribed and quantified using Applied Biosystems TaqMan® RNA-to-CT™ 1-Step Kit, TaqMan® Gene Expression Assays for 18 s RNA, iNOS II, […], and IL-1β, and Step-One™ System. Cycle time, temperature, and number were based on Applied Biosystems recommendations.
Mice were injected i.p. with 2 ml of thioglycollate and sacrificed 24 hours later mice by cervical dislocation. Lavage was performed by infusing 5 ml of […] DPBS into the peritoneal cavity. The fluid sample is recovered by aspirating the liquid with a syringe. 80%±21% of instilled fluid volume is recovered. Macrophages were harvested following centrifugation of the […].

NF-κB p65 and STAT3 = assay: Western blot of nuclear NF-κB p65 and STAT3 in thioglycollate-elicited macrophages; assay type: cell-based, mice; conditions: reconstitution of IL6−/− macrophages
Method: Mice were injected i.p. with 2 ml of thioglycollate and sacrificed 24 hours later mice by cervical dislocation. Lavage was performed by infusing 5 ml of 40 C DPBS into the peritoneal cavity. The fluid sample is recovered by aspirating the liquid with a syringe. 80%±21% of instilled fluid volume is recovered. Macrophages were harvested following centrifugation of the BAL fluid.
NE-PER kit (Thermo Scientific) was used to extract nuclear and cytoplasmic protein from peritoneal macrophages. Protein samples were prepared under reduced conditions and western blot analysis was performed using a standard protocol (Invitrogen). Stat3 (79D7) Rabbit mAb, NF— xB p65, β-actin (13E5) Rabbit mAb (Cell Signaling Technology, Danvers, Mass.) were used for western blot evaluation. Densiometry analyzed by Biorad VersaDoc imaging system.

excisional wounds = assay: inflammatory wound model: wound healing curves; assay type: in vivo, mice; conditions: for day by which wounds healed: IL6−/− mice, inflammatory wound treatment, agent given i.p.
iNOS and TNF-α mRNA = assay: inflammatory wound model: iNOS and TNF-α expression in skin; assay type: in vivo; conditions: IL6−/− mice, combined wounding, UVB and topical rosiglitazone, 24 hours
Method: Cycle time, temperature, and number were based on Applied Biosystems recommendations. Skin was wounded with some modifications. Mice were treated with 3-6 mm excisional wounds, one midline and two on each side of the midline. […] Wounds were measured and treated with topical rosiglitazone solution daily until healed (loss of serum crust and reepithelialization). Lung Treatment and Preparation […] All other reagents were purchased from sigma.

[1] = therapeutic doses; FDA alert May 21, 2007; cited from earlier work

O=C(Nc1ccccc1)c1cc([N+](=O)[O-])ccc1Cl [GW9662]
iNOS expression (peritoneal macrophages): No significant increase

rIL-6: recombinant IL-6 (R&D Systems)
STAT3 and NF-kB levels (NF-κB p65 and STAT3): restores STAT3 and NF-kB levels similar to wildtype conditions
day by which wounds healed (excisional wounds): 11 days

CC(=N)NCc1cccc(CN)c1 [1400 W]
day by which wounds healed (excisional wounds): 14 days

CN(CCOc1ccc(CC2SC(=O)NC2=O)cc1)c1ccccn1 (centres unmarked) [rosiglitazone]
increase in TNF-α mRNA expression (iNOS and TNF-α mRNA): 13 fold
increase in iNOS mRNA expression (iNOS and TNF-α mRNA): 20 fold
delay of wound closure (excisional wounds; IL6−/− mice compared to wildtype, inflammatory wound protocol): 8 days
risk of heart attack [1]: substantially increased risk
